The values that follow come from ChEMBL document CHEMBL1150947, “Indole alkaloids from the tunicate Aplidium meridianum” (J Nat Prod, 1998).

The test can be described thus: Cytotoxicity against mouse LMM3 cells. It counts as functional, cell-based.

In turn, `Nc1nccc(-c2c[nH]c3cc(Br)cc(O)c23)n1` [MERIDIANIN B] showed a concentration for half-maximal inhibition (IC50) of 11.4 µM.
In the case of `Nc1nccc(-c2c[nH]c3ccc(Br)cc23)n1` [MERIDIANIN C] it was 9.3 µM.

Usually IC50 stands for the concentration at which inhibition is half-maximal. Lower therefore signals greater potency in that assay.
